Measurements taken from ChEMBL document CHEMBL1148800, “Novel 2,7-dialkyl-substituted 5(S)-amino-4(S)-hydroxy-8-phenyl-octanecarboxamide transition state peptidomimetics are potent and orally active inhibitors of human renin” (J Med Chem, 2007).

What was measured:
Callithrix jacchus [1] = organism: Callithrix jacchus; assay: animal or person; conditions: Plasma, po, 6 h, read-out: Inhibition
Description: Inhibition of plasma renin activity in sodium depleted marmoset at 10 mg/kg, po after 6 hrs

Callithrix jacchus [2] = organism: Callithrix jacchus; assay: animal or person; conditions: Plasma, po, 6 h, read-out: Inhibition; remark: listed apart in the source
Description: Inhibition of plasma renin activity in sodium depleted marmoset at 3 mg/kg, po after 6 hrs

**Q.** How did the inhibition in vivo at 10 mg/kg (Callithrix jacchus [1]) turn out when `COCCCOc1cc(C[C@@H](C[C@H](N)[C@@H](O)C[C@@H](C)C(=O)NCC(C)(C)N2CCOCC2)C(C)C)ccc1OC` was run?
**A.** 88%

**Q.** `COCCCOc1cc(C[C@@H](C[C@H](N)[C@@H](O)C[C@@H](C)C(=O)NCCN2CCSCC2)C(C)C)ccc1OC` was tested. Which inhibition in vivo at 3 mg/kg (Callithrix jacchus [2]) did it give?
**A.** 28%

**Q.** With `COCCCOc1cc(C[C@@H](C[C@H](N)[C@@H](O)C[C@@H](C)C(=O)NCCCC(N)=O)C(C)C)ccc1OC` as the compound, how does the inhibition in vivo at 3 mg/kg (Callithrix jacchus [2]) read?
**A.** 95%
